Assay results published in article PMC8514817, “De Novo Design of Antimicrobial Peptides With a Special Charge Pattern and Their Application in Combating Plant Pathogens” (Frontiers in Plant Science, 2021).
Where two headings read alike, the source gives them in different places.

Legend:
[1] = tested on: Rs Pss190; details: Table 5, minimal medium, crude peptides, up to 32 μg/ml; for MIC: 96 h; for MBC/MFC: spotted on rich agar 48 h
[2] = tested on: Cgl FST02; details: for MIC / MBC/MFC: Table 5, minimal (CD) medium, crude peptides, up to 32 μg/ml; for MIC: spores, 96 h; for MBC/MFC: spotted on PD plate 24~72 h; for antimicrobial activity: at the highest peptide concentration (32μg/ml) tested, data not shown, before the tests in minimal media
[3] = tested on: Pst DC3000; details: Table 4, rich medium, up to 32 μg/ml; for MIC: 48 h, no visible growth; for MBC: spotted on rich agar 48 h, no colony
[4] = tested on: Ech; details: up to 32 μg/ml
[5] = tested on: Rs; type: cell-based, Ralstonia solanacearum; details: crude peptide, 5 μl of 64 μg/ml in 20 μl, bacteria OD600=0.4 in water, 2 h, confocal microscopy
[6] = tested on: Xoo Xoo28; details: Table 4, rich medium, up to 32 μg/ml; for MIC: 48 h, no visible growth; for MBC: spotted on rich agar 48 h, no colony
[7] = tested on: Pectobacterium carotovorum subsp. carotovorum (Pcc); assay: Plant disease response, Pcc infection of Arabidopsis Col0 leaves; type: in vivo, Arabidopsis thaliana; details: crude peptide 16 μg/ml mixed with Pcc, wounded leaves of Arabidopsis Col0, 16–28 h post-inoculation, vs water
[8] = tested on: Eco DH5α; details: 48 h
[9] = tested on: Botrytis cinerea (Bc); assay: Plant disease response, Bc infection of Arabidopsis Col0 leaves; type: in vivo, Arabidopsis thaliana; details: for development of the lesion caused by Bc, Arabidopsis: crude peptide 16 μg/ml mixed with Bc spores (10^5 spores/ml), Arabidopsis Col0 leaves, 47–70 h post-inoculation, vs water
[10] = tested on: Xev Xvt28; details: 48 h
[11] = tested on: Rs Pss4; details: Table 5, minimal medium, crude peptides, up to 32 μg/ml; for MIC: 96 h; for MBC/MFC: spotted on rich agar 48 h
[12] = tested on: Eco; type: cell-based, Escherichia coli
[13] = tested on: Pss B728a; details: Table 4, rich medium, up to 32 μg/ml; for MIC: 48 h, no visible growth; for MBC: spotted on rich agar 48 h, no colony
[14] = tested on: Botrytis cinerea (Bc); assay: Plant disease response, Bc infection of tomato L390 leaves; type: in vivo, Solanum lycopersicum; details: crude peptide 16 μg/ml mixed with Bc spores (10^4 spores/ml), 47–70 h post-inoculation, vs water
[15] = tested on: Pcc; details: up to 32 μg/ml
[16] = tested on: Pectobacterium carotovorum subsp. carotovorum (Pcc); assay: Plant disease response, Pcc infection of tomato L390 leaves; type: in vivo, Solanum lycopersicum; details: for size of disease lesions caused by Pcc, tomato: crude peptide 16 μg/ml mixed with Pcc, detached wounded tomato L390 leaves, 16–28 h post-inoculation, vs water
[17] = tested on: Bc; details: for MIC / MBC/MFC: Table 5, minimal (CD) medium, crude peptides, up to 32 μg/ml; for MIC: spores, 96 h; for MBC/MFC: spotted on PD plate 24~72 h; for antimicrobial activity: at the highest peptide concentration (32μg/ml) tested, data not shown, before the tests in minimal media
[18] = tested on: Ralstonia solanacearum (Rs); type: cell-based; details: at the highest peptide concentration (32μg/ml) tested; data not shown; before the tests in minimal media
[19] = tested on: Eco DH5α
[20] = tested on: Xcc Xcc17; type: cell-based, Xanthomonas campestris pv. campestris; details: rich medium, HPLC-purified peptides, peptide 0, 2, 10, 20 μg/ml, 24 h, OD600; lowest concentration inhibiting 50% of growth
[21] = tested on: Xev Xvt28
[22] = tested on: Xoo Xoo28; type: cell-based, Xanthomonas oryzae pv. oryzae; details: rich medium, HPLC-purified peptides, peptide 0, 2, 10, 20 μg/ml, 24 h, OD600; lowest concentration inhibiting 50% of growth
[23] = tested on: Atu C58C1; type: cell-based, Agrobacterium tumefaciens; details: rich medium, HPLC-purified peptides, peptide 0, 2, 10, 20 μg/ml, 24 h, OD600; lowest concentration inhibiting 50% of growth
[24] = Circular dichroism, secondary structure deconvolution; type: physicochemical; details: CD, structural deconvolution; for α-helix content: dissolved in water
Protocol: The peptides were dissolved in water to make a stock solution and then diluted in the solution that contained different concentrations of trifluoroethanol (TFE) to the desired final TFE concentration. The circular dichroism (CD) spectra between 190 and 250nm were recorded on a J-815 CD spectrometer (JASCO, Japan). The bandwidth was 2nm, and the step resolution was 0.05nm. Each sample was scanned twice, and the average of the two measurements was smoothed using the Savitzky-Golay method to get the final CD spectrum. The CD spectra were deconvoluted using the CD Multivariate SSE software version 2.0.1 (JASCO, Japan).

[25] = Table 5, minimal medium, crude peptides, 96 h
[26] = Table 4, rich medium, 48 h, no visible growth
[27] = Table 5, minimal medium, crude peptides, spotted on rich agar 48 h
[28] = Table 7, rich media, spotted on rich agar 48 h

Ac-WKKLKKLLKKL-NH2 [pepD3]
MIC [1]: – (“–” indicates that no antimicrobial activity was detected in minimal media at the highest concentration (32μg/ml) of crude peptides that was tested in this study.)
MBC/MFC [1]: – (“–” indicates that no antimicrobial activity was detected in minimal media at the highest concentration (32μg/ml) of crude peptides that was tested in this study.)
MIC [2]: – (“–” indicates that no antimicrobial activity was detected in minimal media at the highest concentration (32μg/ml) of crude peptides that was tested in this study.)
MBC/MFC [2]: – (“–” indicates that no antimicrobial activity was detected in minimal media at the highest concentration (32μg/ml) of crude peptides that was tested in this study.)
antimicrobial activity [2]: did not have detectable antimicrobial activity
MIC [3]: 8 µg/mL
MBC [3]: 16 µg/mL
MIC [4, 25]: 32 µg/mL
membranolytic effect (SYTOX Green staining) [5]: significant membranolytic effect
MIC [6]: 4 µg/mL
MBC [6]: 4 µg/mL
size of disease lesions caused by Pcc, Arabidopsis [7]: did not detectably inhibit the diseases
MBC [8]: 16 µg/mL
MIC [8]: 8 µg/mL
development of the lesion caused by Bc, Arabidopsis [9]: did not detectably inhibit the diseases
MBC [10]: 4 µg/mL
MIC [10]: 4 µg/mL
MIC [11]: – (“–” indicates that no antimicrobial activity was detected in minimal media at the highest concentration (32μg/ml) of crude peptides that was tested in this study.)
MBC/MFC [11]: – (“–” indicates that no antimicrobial activity was detected in minimal media at the highest concentration (32μg/ml) of crude peptides that was tested in this study.)
membranolytic effect (SYTOX Green staining) [12]: significant membranolytic effect
MIC [13]: 8 µg/mL
MBC [13]: 16 µg/mL
development of the lesion caused by Bc, tomato [14]: did not detectably inhibit the diseases
MIC [15, 26]: 8 µg/mL
MIC [15, 25]: 8 µg/mL
MBC/MFC [15, 27]: 16 µg/mL
size of disease lesions caused by Pcc, tomato [16]: did not detectably inhibit the diseases
MIC [17]: – (“–” indicates that no antimicrobial activity was detected in minimal media at the highest concentration (32μg/ml) of crude peptides that was tested in this study.)
MBC/MFC [17]: – (“–” indicates that no antimicrobial activity was detected in minimal media at the highest concentration (32μg/ml) of crude peptides that was tested in this study.)
antimicrobial activity [17]: did not have detectable antimicrobial activity
antimicrobial activity [18]: did not have detectable antimicrobial activity

Ac-WKKLKKLLKKLKKL-NH2 [pepD2]
MIC [1]: – (“–” indicates that no antimicrobial activity was detected in minimal media at the highest concentration (32μg/ml) of crude peptides that was tested in this study.)
MBC/MFC [1]: – (“–” indicates that no antimicrobial activity was detected in minimal media at the highest concentration (32μg/ml) of crude peptides that was tested in this study.)
MIC [2]: – (“–” indicates that no antimicrobial activity was detected in minimal media at the highest concentration (32μg/ml) of crude peptides that was tested in this study.)
MBC/MFC [2]: – (“–” indicates that no antimicrobial activity was detected in minimal media at the highest concentration (32μg/ml) of crude peptides that was tested in this study.)
antimicrobial activity [2]: did not have detectable antimicrobial activity
MIC [3]: 4 µg/mL
MBC [3]: 8 µg/mL
MIC [4, 25]: 16 µg/mL
MBC/MFC [4, 27]: 16 µg/mL
MIC ([4]; Table 7, rich media, 48 h): 32 µg/mL
MBC [4, 28]: 32 µg/mL
membranolytic effect (SYTOX Green staining) [5]: significant membranolytic effect
MIC [6]: 4 µg/mL
MBC [6]: 8 µg/mL
size of disease lesions caused by Pcc, Arabidopsis [7]: did not detectably inhibit the diseases
MBC [8]: 8 µg/mL
Plant response to infection with Bc, Arabidopsis (class and significance; number of batches in parentheses) ([9]; crude peptide 16 µg/mL, lesion diameter 47–70 h post-inoculation, Student's t-test vs water-treated): ns(2 )
development of the lesion caused by Bc, Arabidopsis [9]: did not detectably inhibit the diseases
MBC [10]: 4 µg/mL
MIC [10]: 4 µg/mL
MIC [11]: – (“–” indicates that no antimicrobial activity was detected in minimal media at the highest concentration (32μg/ml) of crude peptides that was tested in this study.)
MBC/MFC [11]: – (“–” indicates that no antimicrobial activity was detected in minimal media at the highest concentration (32μg/ml) of crude peptides that was tested in this study.)
membranolytic effect (SYTOX Green staining) [12]: significant membranolytic effect
MIC [13]: 8 µg/mL
MBC [13]: 16 µg/mL
development of the lesion caused by Bc, tomato [14]: did not detectably inhibit the diseases
MIC [15, 26]: 8 µg/mL
MIC [15, 25]: 8 µg/mL
MBC/MFC [15, 27]: 8 µg/mL
MIC ([15]; Table 7, rich media, 48 h): 4 µg/mL
MBC [15, 28]: 8 µg/mL
Plant response to infection with Pcc, Tomato (class and significance; number of batches in parentheses) ([16]; crude peptide 16 µg/mL, lesion diameter 16–28 h post-inoculation, Student's t-test vs water-treated): ns(3)
size of disease lesions caused by Pcc, tomato [16]: did not detectably inhibit the diseases
MIC [17]: – (“–” indicates that no antimicrobial activity was detected in minimal media at the highest concentration (32μg/ml) of crude peptides that was tested in this study.)
MBC/MFC [17]: – (“–” indicates that no antimicrobial activity was detected in minimal media at the highest concentration (32μg/ml) of crude peptides that was tested in this study.)
antimicrobial activity [17]: did not have detectable antimicrobial activity
antimicrobial activity [18]: did not have detectable antimicrobial activity

Ac-WKLLKKLLKLLKKLLKLL-NH2 [pepB]
IC50 [19]: – (key: “–” indicates that no antimicrobial activity was detected in rich media at the highest peptide concentration (20μg/ml) that was tested in this study.)
IC50 [20]: – (“–” indicates that no antimicrobial activity was detected in rich media at the highest peptide concentration (20μg/ml) that was tested in this study.)
IC50 ([21]; 24 h): 20 µg/mL
IC50 [22]: – (“–” indicates that no antimicrobial activity was detected in rich media at the highest peptide concentration (20μg/ml) that was tested in this study.)
IC50 [23]: – (“–” indicates that no antimicrobial activity was detected in rich media at the highest peptide concentration (20μg/ml) that was tested in this study.)
α-helix formation ([24]; 10% TFE): 90%
α-helix content [24]: about 25%

Ac-WKLLKLLLKLLKLLLKLL-NH2 [pepA, de novo designed amphipathic peptide, 28% positively charged residues, 90° distribution]
IC50 [19]: – (key: “–” indicates that no antimicrobial activity was detected in rich media at the highest peptide concentration (20μg/ml) that was tested in this study.)
IC50 [20]: – (“–” indicates that no antimicrobial activity was detected in rich media at the highest peptide concentration (20μg/ml) that was tested in this study.)
IC50 [21]: – (key: “–” indicates that no antimicrobial activity was detected in rich media at the highest peptide concentration (20μg/ml) that was tested in this study.)
IC50 [22]: – (“–” indicates that no antimicrobial activity was detected in rich media at the highest peptide concentration (20μg/ml) that was tested in this study.)
IC50 [23]: – (“–” indicates that no antimicrobial activity was detected in rich media at the highest peptide concentration (20μg/ml) that was tested in this study.)
α-helix content [24]: over 90%
